Each structure is given as a SMILES string. Values after ≈ are worked out from the molar mass of the structure shown.

Data set [1] in a line: TS-FeSSIF & TS-FeSSGF solubility test. The conditions noted are these: pH 5.
Data set [2] addresses T1, PKMYT1 enzyme (Homo sapiens, UniProt Q99640).
T1 construct: purchased Thermo Scientific A33387
T1 sequence (Q99640 1-499): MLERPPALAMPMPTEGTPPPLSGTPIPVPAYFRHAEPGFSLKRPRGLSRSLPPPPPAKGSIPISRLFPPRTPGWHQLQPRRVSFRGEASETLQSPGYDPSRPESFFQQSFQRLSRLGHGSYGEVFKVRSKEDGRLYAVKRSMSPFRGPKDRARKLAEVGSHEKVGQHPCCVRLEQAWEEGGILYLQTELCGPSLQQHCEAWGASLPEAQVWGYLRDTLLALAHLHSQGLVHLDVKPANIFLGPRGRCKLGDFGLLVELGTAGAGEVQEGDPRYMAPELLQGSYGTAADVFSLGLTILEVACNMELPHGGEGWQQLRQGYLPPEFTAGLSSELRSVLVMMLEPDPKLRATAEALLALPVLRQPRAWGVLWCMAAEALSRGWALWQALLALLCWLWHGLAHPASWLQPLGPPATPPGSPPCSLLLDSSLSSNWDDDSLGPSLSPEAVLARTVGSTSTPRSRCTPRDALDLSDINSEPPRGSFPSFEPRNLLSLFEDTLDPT
Kind of data set: PKMYT1 enzyme inhibition activity, ADP-GLO method. It is filed as biochemical. The conditions noted are these: PKMYT1 enzyme 10 nM, ATP 5 µM, 37°C 90 minutes; read-out: ADP-GLO IC50.

Data set [3] is described as follows: Metabolic stability in human hepatocytes. Particulars: for hepatocyte CLint at 1 µM: In vitro Clint (µL/min/10^6 cells); for half-life at 1 µM: t1/2 (min).
A short description of data set [4]: Tissue distribution: tumor tissue concentration in OVCAR3 tumor-bearing mice. The conditions noted are these: BALB/c nude mice, 10 mpk p.o. BIDx28D; for Tumor tissue concentration (ng/g) 2 h after administration: 2 h after last administration; for Tumor tissue concentration (ng/g) 6 h after administration: 6 h after last administration.
Protocol: The cells were cultured in an incubator at 37°C and 5% CO2. The medium was changed every other day, and the cells were subcultured every 3 to 4 days after the cells had become confluent. Under sterile conditions, the in vitro cultured OVCAR3 cell suspension was taken, centrifuged, and added to adjust the cell concentration to 1 × 10^8 cells/mL, and an equal volume of Matrigel was added, and inoculated subcutaneously on the back of the right hind forelimb of mice (BALB/c nude mice, female, Beijing Vital River Laboratory Animal Technology Co., Ltd.) (0.1 mL/mouse). […] The mice were randomly divided into groups according to tumor size and weight, and the administration of the test compound was started.
The experiment was divided into a solvent control group, a positive control group, and a test group, with 5-6 mice in each group. For the test compound administration group, the test compound was mixed in 0.5% methylcellulose and administered by oral gavage twice a day. The experiment was terminated 28 days after administration, and PK plasma (EDTA-K2 anticoagulated) samples were collected (0.5 h, 1 h, 2 h, and 6 h after administration), and the mice were euthanized and tumor samples were collected 2 h and 6 h after the last administration.
Tumor concentration test method:
All tumor samples were added with pure water at a ratio of 1:3 (3 mL solvent per g tumor), and homogenized using a cryogenic homogenizer to obtain tumor sample solutions.
Standard curve preparation method:
The powder of the test compound was diluted in a gradient manner with 50% acetonitrile aqueous solution to obtain a series of working solutions. 3 µL of working solution (10, 20, 40, 100, 200, 1000, 2000, 10000, and 20000 ng/mL) was added to 57 µL of blank Balb/c nude mouse tumor sample solution to obtain calibration standard solutions of 0.5 to 1000 ng at concentrations of 0.5, 1, 2, 5, 10, 50, 100, 500, and 1000 ng/mL, respectively, in a total volume of 60 µL.
Quality control samples were prepared in the same manner as the calibration standard solutions: 3 µL of working solution (30, 60, 120, 1000, 8000, and 16000 ng/mL) was added to 57 µL of blank Balb/c nude mouse tumor sample solution to obtain 6 quality control samples with concentrations of 1.5 ng/mL, 3 ng/mL, 6 ng/mL, 50 ng/mL, 400 ng/mL, and 800 ng/mL, respectively, with a total volume of 60 µL.
30 µL of the sample (including standard solution, quality control sample, and test sample) was taken, and 200 µL of protein precipitant containing acetonitrile was added to precipitate the protein, vortexed for 30 seconds, then centrifuged at 4°C and 3900 rpm for 15 minutes, and then the supernatant was aspirated and diluted 3 times with water. 5 µL of the diluted supernatant was loaded on the LC/MS/MS system for quantitative analysis.
Data set [5] deals with HCC1569 cells. Briefly: Cytostatic activity, CTG assay (HCC1569). It counts as cell-based. The conditions noted are these: 5 days. The procedure:
Biological test example 2. Cytostatic activity of compounds of the present disclosure
CTG assay (HCC1569) was used to verify the biological activity of some of the example compounds of the present disclosure.
HCC1569 cells were purchased from ATCC (Cat. No.: CRL-2330) and cultured in a 37°C, 5% CO2 cell culture incubator. HCC1569 complete medium: RPMI-1640 liquid medium (Cat. No.: Gibico 11875-093), 20% FBS (Cat. No.: Gibico 10099-141), 1% Pen Strep (Cat. No.: Gibico 15070-063).
HCC1569 cells in a 75 cm^2 culture flask were digested with 2 mL of trypsin for 2-3 min, and then neutralized with 2 mL of 1640 complete medium. The mixture was centrifuged at 1200 rpm for 5 minutes. Cells were resuspended using 4 mL of 1640 complete medium. 500 µL of cell suspension was taken for cell counting using Vi-CELL-XR cell counter.
Using a Multidrop instrument, the HCC1569 cells were seeded in a 384-well plate at a density of 1000 cells per well (50 µL 1640 Growth Media) and administrated 24 hours later.
Using an ultra-micro pipette, the test compound (concentration: 3.33 mM, dissolved in DMSO) was diluted with 10 µM as the highest starting concentration, and then sequentially diluted in 10 gradients at a ratio of 1:3 (10000 nM, 3333 nM, 1111 nM, 370 nM, 123 nM, 41 nM, 13.7 nM, 4.6 nM, 1.5 nM, 0.5 nM) for administration treatment, with two duplicate wells for each concentration; 14 wells for positive and negative controls were set, with the positive control being the duplicate wells of 10 µM positive compound and the negative control being the duplicate wells of DMSO.
After the administration was completed, the cells were placed in a 37°C incubator for further culture for 5 days. After 5 days, 25 µL of CTG buffer was added to each well for CTG assay detection, and analyzed using a microplate reader. CTG readings were analyzed.
a = CTG value (highest concentration), b = CTG value (blank well), x = CTG value(test well).
IC50 was calculated using GraphPad PRISM 8.
Log10 (A compound concentration) was used for statistical calculation. (2) The data were input into GraphPad PRISM 8, and Analysis was selected. (3) Nonlinear regression (curve fit) was selected. (4) Log (inhibitor) vs. response-Variable slope was selected. (5) The calculation formula was selected, and the calculation was carried out according to the following formula: Y = Bottom + (Top-Bottom)/(1+10^((LogIC50-X)*HillSlope)), X: logarithm of dose or concentration, Y: response value, Top and Bottom: peak and bottom values. (6) The data were fitted to obtain IC50 values. (7) The fitting conditions were adjusted according to the specific data. Appropriate Constraint conditions were adjusted for Bottom, Top, and HillSlope. The curve that best fits the actual situation has been reached.

Data set [6] in a line: Metabolic stability in mouse liver microsomes. Background: Liver microsomes are vesicles of endoplasmic reticulum, rich in cytochrome P450 enzymes.
Protocol: The concentration of the parent drug in the incubation system was detected by LC/MS/MS, and the intrinsic clearance rate of the test compound in the microsome system was calculated to evaluate its stability. The test concentration of the test compound and the positive control compound was 1 µM. • 1. 25 µL of NADPH (10 mM) or phosphate buffered saline (100 mM, pH = 7.4) was transferred to the liver microsome incubation system, and 2 µL of the test sample or verapamil at a concentration of 200 µM was added. Samples supplemented with NADPH were prepared in duplicate, and NADPH-negative samples were prepared in singlicate. • 2. 30 µL of the suspension was taken at 0.5, 5, 15, 30, and 60 minutes, respectively. The reaction was stopped by adding 180 µL of acetonitrile containing internal standard and vortexed for 10 min. • 3. […] 100 µL of the supernatant was transferred to the sample injection plate, and 100 µL of pure water was added and mixed well for UPLC-MS/MS analysis. • 4. All data calculations were performed using Microsoft Excel software. Peak areas were detected by extracting ion chromatograms. The in vitro half-life (t1/2) of the parent drug was detected by linear fitting the natural logarithm of the parent drug elimination percentage with time.
The in vitro clearance rate Clint (unit: µL/min/mg) was calculated: in vitro CLint = kV/N; V = incubation volume per well (400 µL); V = incubation volume per well (400 µL).
Data set [7] in a line: physchem. Particulars: pH 5, Solubility (µg/mL).
The conditions of data set [8]: 24 h, pH 5.

One may read the solubility as how much of the substance goes into solution per volume. The term IC50 denotes the concentration that gives 50% inhibition. By hepatocyte CLint is commonly meant the capacity of the preparation to metabolise the compound, expressed as a volume cleared per time. A high value points to faster metabolism. Broadly, the half-life is the time in which the quantity being followed falls by half. Higher therefore signals slow loss. In general, microsomal CLint refers to the capacity of the preparation to metabolise the compound, expressed as a volume cleared per time. Take `Cc1cc(F)c(O)c(C)c1-n1c(N)c(C(N)=O)c2cc(C(F)(F)F)c(C)nc21` (atropisomer, axis not shown) [Example 59.1]: the solubility at 24 h in data set [1] (ts-fessgf) worked out at 253 µg/mL (≈ 639 µM); in data set [1] (ts-fessif), 352 µg/mL (≈ 888 µM). The IC50 in data set [2] was determined as 4.49 nM; in data set [5] (Homo sapiens, HCC1569, 120 h), 56 nM. Besides, the hepatocyte CLint at 1 µM in data set [3] (Female) turned out to be 10 µL/min/1e6 cells; in data set [3] (Male), 7 µL/min/1e6 cells. Besides, the half-life at 1 µM was 2.3 h in data set [3] (Female), 3.3 h in data set [3] (Male) and 3.08 h in data set [6] (liver microsomes). For the same compound, the “Tumor tissue concentration (ng/g) 2 h after administration” value in data set [4] came out at 633 ng/g. Moreover, the “Tumor tissue concentration (ng/g) 6 h after administration” value in data set [4] turned out to be 231 ng/g. The microsomal CLint at 1 µM in data set [6] (liver microsomes) is less than 7.5 µL/min/mg.

Broadly, the Solubility is the concentration that dissolves in the medium under given conditions. Higher therefore signals a readily soluble substance. For `Cc1cc2c(C(N)=O)c(N)n(-c3c(C)ccc(O)c3C)c2nc1C` (atropisomer, axis not shown) [RP-6306, reference compound], in data set [7], the solubility at 24 h is 31.6 µg/mL (≈ 97.4 µM). The “Solubility” value in data set [8] is reported as 33.9 µg/mL (≈ 105 µM). In addition, in data set [4], the “Tumor tissue concentration (ng/g) 2 h after administration” value was found to be 172 ng/g and the “Tumor tissue concentration (ng/g) 6 h after administration” value is recorded as 18 ng/g. In data set [6] (microsomes), this compound showed a half-life at 1 µM of 0.377 h and a microsomal CLint at 1 µM of 61.3 µL/min/mg.

For `Cc1cc(F)c(O)c(C)c1-n1c(N)c(C(N)=O)c2cc(C(C)C)c(C)nc21` (racemic) [Example 159], the IC50 stood at 15.1 nM in data set [2] and 56.2 nM in data set [5] (Homo sapiens, HCC1569, 120 h).

On to `Cc1nc2c(cc1-c1ncco1)c(C(N)=O)c(N)n2-c1c(C)c(O)cc(F)c1C` [Example 121], for which the IC50 in data set [2] was found to be 5.11 nM; in data set [5] (Homo sapiens, HCC1569, 120 h), 21 nM.

On to `Cc1cc(F)c(O)c(C)c1-n1c(N)c(C(N)=O)c2cc(Br)c(C)nc21` (atropisomer, axis not shown) [Example 58.1], for which the IC50 in data set [2] amounted to 3.08 nM; in data set [5] (Homo sapiens, HCC1569, 120 h) it was 83 nM. Further, the half-life at 1 µM in data set [6] (liver microsomes) stood at 1.16 h. In addition, the microsomal CLint at 1 µM in data set [6] (liver microsomes) amounted to 19.9 µL/min/mg.

In the case of `CCc1cc2c(C(N)=O)c(N)n(-c3c(C)c(O)cc(F)c3C)c2nc1C` (atropisomer, axis not shown) [Example 132.1], the figures for the IC50 in data set [2] and in data set [5] were 6.23 nM and 11 nM, respectively.

For the compound `C=Cc1cc2c(C(N)=O)c(N)n(-c3c(C)cc(F)c(O)c3C)c2nc1C` (atropisomer, axis not shown) [Example 142], the IC50 was 20.7 nM in data set [2] and 88 nM in data set [5] (Homo sapiens, HCC1569, 120 h).

Turning to `Cc1c(O)cc(F)c(C)c1-n1c(N)c(C(N)=O)c2cc3ccccc3nc21` [Example 191], the IC50 in data set [2] was 2.85 nM; in data set [5] (Homo sapiens, HCC1569, 120 h), 16 nM.

`C=C(C)c1cnc2c(c1)c(C(N)=O)c(N)n2-c1c(C)c(O)cc(F)c1C` (atropisomer, axis not shown) [Example 133]: the concentration for half-maximal inhibition (IC50) turned out to be 6.62 nM in data set [2] and 18 nM in data set [5] (Homo sapiens, HCC1569, 120 h).

Turning to `Cc1c(O)cc(F)c(C)c1-n1c(N)c(C(N)=O)c2cc(-c3ccccc3)cnc21` (atropisomer, axis not shown) [Example 119.1], the IC50 is 4.66 nM in data set [2] and 18 nM in data set [5] (Homo sapiens, HCC1569, 120 h).

As to `Cc1cc(F)c(O)c(C)c1-n1c(N)c(C(N)=O)c2c3c(c(C)nc21)CCC3` (atropisomer, axis not shown) [Example 176.2], the concentration for half-maximal inhibition (IC50) turned out to be 10.2 nM in data set [2] and 68 nM in data set [5] (Homo sapiens, HCC1569, 120 h).

As for `Cc1cc2c(C(N)=O)c(N)n(-c3c(C)c(O)cc(F)c3C)c2nc1C` [Example 20, 2-amino-1-(3-fluoro-5-hydroxy-2,6-dimethylphenyl)-5,6-dimethyl-1H-pyrrolo[2,3-b]pyridine-3-carboxamide], the IC50 in data set [2] was 15.3 nM; in data set [5] (Homo sapiens, HCC1569, 120 h) it was 40 nM.

As for `Cc1c(O)cc(F)c(C)c1-n1c(N)c(C(N)=O)c2cc(Cl)cnc21` [Example 81], the IC50 in data set [2] came out at 9.19 nM; in data set [5] (Homo sapiens, HCC1569, 120 h) it was 66 nM.

In the case of `Cc1c(O)cc(F)c(C)c1-n1c(N)c(C(N)=O)c2cc(C3CC3)cnc21` [Example 80], the half-inhibitory concentration (IC50) in data set [2] is 3.51 nM; in data set [5] (Homo sapiens, HCC1569, 120 h), 16 nM.

For `Cc1c(O)cc(F)c(C)c1-n1c(N)c(C(N)=O)c2cc3c(nc21)CCO3` [Example 181], the IC50 in data set [2] was determined as 34.8 nM; in data set [5] (Homo sapiens, HCC1569, 120 h), 63 nM.

In the case of `Cc1cc(F)c(O)c(C)c1-n1c(N)c(C(N)=O)c2cc(C(C)C)c(C)nc21` (atropisomer, axis not shown) [Example 159.1], the IC50 in data set [2] was 4.42 nM; in data set [5] (Homo sapiens, HCC1569, 120 h) it was 31 nM.

Values taken from EP4624471A1, “PKMYT1 INHIBITOR, PREPARATION METHOD THEREFOR, AND PHARMACEUTICAL COMPOSITION AND USE THEREOF” (Shanghai Qilu Pharmaceutical Research and Development …, priority 2022, dated 2024).
